Experimental data published in patent publication US20080004276A1, “Method for treating non-hodgkin's lymphoma” (priority 2006, published 2008).
Entries after “also recorded” stand apart in the source; their conditions may differ.

Legend:
Her2 = assay: IC50 range for inhibition of Her2 degradation (Table 8); assay type: cell-based; details: Homo sapiens
Method: Human high-Her2 breast carcinoma BT474 (HTB-20), SK-BR-3 (HTB-30) and MCF-7 breast carcinoma (HTB-22) from American Type Culture Collection, VA, USA were grown in Dulbecco's modified Eagle's medium with 4 mM L-glutamine and antibiotics (100 IU/ml penicillin and 100 ug/ml streptomycine; GibcoBRL). To obtain exponential cell growth, cells were trypsinized, counted and seeded at a cell density of 0.5×10^6 cells/ml regularly, every 3 days. All experiments were performed on day 1 after cell passage. […]
After treatment with a compound of the invention, cells were washed twice with 1×PBS/1% FBS, and then stained with anti-Her2-FITC (#340553, BD) for 30 min at 4° C. Cells were then washed three times in FACS buffer before the fixation in 0.5 ml 1% paraformadehydrede. Data was acquired on a FACSCalibur system. Isotype-matched controls were used to establish the non-specific staining of samples and to set the fluorescent markers. A total 10,000 events were recorded from each sample. Data were analysed by using CellQuest software (BD Biosciences).

SU-DHL-4 = SU-DHL-4 non-Hodgkin's lymphoma SCID mouse xenograft; assay type: in vivo; details: for % T/C value: FIG. 6
Method: The human non-Hodgkin's lymphoma tumor cell line, SU-DHL-4 (DSMZ #ACC 495), sub-classified as a GCB-type diffuse large B-cell lymphoma, was obtained from Deutsche Sammlung von Mikroorganismen und Zellkulturen GmbH (DSMZ; Braunschweig, Germany). […] FBS was obtained from ATCC and all other reagents were obtained from Invitrogen Corp. (Carlsbad, Calif., USA). Approximately 3-4×10(7) cells that had been cryopreserved in liquid nitrogen were rapidly thawed at 37° C. and transferred to a 175 cm^2 tissue culture flask containing 50 ml of growth media and then incubated at 37° C. in a 5% CO2 incubator. To passage and expand the cell line, the contents of a flask were centrifuged to pellet the cells, the supernatant was aspirated and the cell pellet was resuspended in 10 ml of growth media and the cell number determined using a hemocytometer. Approximately 3-4×10(7) cells per flask were seeded into 175 cm^2 flasks containing 50 ml of growth media and incubated at 37° C. in a 5% CO2 incubator. The above passaging process was repeated every 2-3 days until sufficient cells had been obtained for implantation into mice.
(§1) Seven to eight week old, female CB17/Icr-Prkdc^scid/Crl (SCID) mice were obtained from Charles River Laboratories (Wilmington, Mass., USA). Animals were housed 4-5/cage in micro-isolators, with a 12 hr/12 hr light/dark cycle, acclimated for at least 1 week prior to use and fed normal laboratory chow ad libitum. Studies were conducted on animals that were between 8 and 12 weeks of age at the time of tumor cell implantation. […] Using a 27 gauge needle and 1 cc syringe, 0.1 ml of the cell suspension was injected subcutaneously into the shaved flanks of SCID mice. To implant SU-DHL-4 tumor cells into SCID mice, cell cultures were centrifuged to pellet the cells, the supernatant was aspirated and the cell pellet was resuspended in 10 ml of growth media and the cell number determined using a hemocytometer, washed in PBS and resuspended at a concentration of 10×10(7) cells/ml in 50% PBS and 50% Matrigel Basement Membrane Matrix (#354234; BD Biosciences; Bedford, Mass., USA). Using a 27 gauge needle and 1 cc syringe, 0.1 ml of the cell suspension was injected subcutaneously into the shaved flanks of SCID mice.
Tumors were then permitted to develop in vivo until the majority reached 100-200 mm^3 in tumor volume, which typically required 2-3 weeks following implantation. […] Tumor volumes (V) were calculated by caliper measurement of the width (W), length (L) and thickness (T) of tumors using the following formula: V=0.5236×(L×W×T). Animals were randomized into treatment groups so that the median tumor volumes of each group were similar at the start of dosing. % T/C values, as a measure of efficacy, were determined as follows: • (i) If ΔT>0: % T/C=(ΔT/ΔC)×100 • (ii) If ΔT<0: % T/C=(ΔT/T0)×100 • (iii) ΔT=Change in median tumor volume between start of dosing and the end of study. • (iv) ΔC=Change in median tumor volume between start of dosing and the end of study. • (v) T0=Median tumor volume at start of dosing.
To formulate Compound #226 in DRD, stock solutions of the test article were prepared by dissolving the appropriate amounts of the compound in dimethyl sulfoxide (DMSO) by sonication in an ultrasonic water bath. Stock solutions were prepared weekly, stored at −20° C. and diluted fresh each day for dosing. A solution of 20% Cremophore RH40 (polyoxyl 40 hydrogenated castor oil; BASF Corp., Aktiengesellschaft, Ludwigshafen, Germany) in 5% dextrose in water (Abbott Laboratories, North Chicago, Ill., USA) was also prepared by first heating 100% Cremophore RH40 at 50-60° C. until liquefied and clear, diluting 1:5 with 100% D5W, reheating again until clear and then mixing well. This solution was stored at room temperature for up to 3 months prior to use. To prepare DRD formulations for daily dosing, DMSO stock solutions were diluted 1:10 with 20% Cremophore RH40. […]

Daudi = Daudi non-Hodgkin's lymphoma SCID mouse xenograft; assay type: in vivo; details: 25 mg/kg i.v., 5 times per week, 15 doses
Method: FBS was obtained from ATCC and all other reagents were obtained from Invitrogen Corp. (Carlsbad, Calif., USA). Cells that had been cryopreserved in liquid nitrogen were rapidly thawed at 37° C. and transferred to a tissue culture flask containing growth media and then incubated at 37° C. in a 5% CO2 incubator. To expand the cell line, cultures were passaged 1:2 to a density of 5×10(6) cells/ml every three days by adding an equal volume of fresh growth media. When the flasks reached a density of approximately 10×10(6) cells/ml, the above passaging process was repeated until sufficient cells had been obtained for implantation into mice.
as §1
Tumors were then permitted to develop in vivo until the majority reached 100-200 mm^3 in tumor volume, which typically required 2-3 weeks following implantation. […] Tumor volumes (V) were calculated by caliper measurement of the width (W), length (L) and thickness (T) of tumors using the following formula: V=0.5236×(L×W×T). […]

| SMILES | IC50 (Her2) [nM] | other results |
| --- | --- | --- |
| CCc1cc(-c2nnc(S)n2-c2ccc(OC)c(C(C)(C)C)c2)c(O)cc1O [Compound 186, 3-(2,4-Dihydroxy-5-ethyl-phenyl)-4-(3-t-butyl-4-methoxy-phenyl)-5-mercapto-triazole] | 10000 to 100000 | – |
| CCc1cc(-c2nnc(S)n2-c2ccc(OC)c3c2ccn3C(C)C)c(O)cc1O [Compound 188, 3-(2,4-Dihydroxy-5-ethyl-phenyl)-4-(1-isopropyl-7-methoxy-indol-4-yl)-5-mercapto-[1,2,4]triazole] | < 3000 | – |
| CC(C)c1cc(-c2nnc(O)n2-c2ccc3c(ccn3C)c2)c(O)cc1O [Compound 226, 3-(2,4-dihydroxy-5-isopropyl-phenyl)-4-(1-methyl-indol-5-yl)-5-hydroxy-[1,2,4] triazole] | – | % T/C value (SU-DHL-4; 50 mg/kg i.v., 2 times per week, 4 doses, SCID mice): 34.9%; % T/C value (SU-DHL-4; 75 mg/kg i.v., 2 times per week, 4 doses, SCID mice): 8.1%; % T/C value (SU-DHL-4; 100 mg/kg i.v., 2 times per week, 4 doses, SCID mice): −10.4%; overt toxicity (SU-DHL-4; 50, 75 and 100 mg/kg i.v., 2 times per week, 4 doses, SCID mice): not associated with overt toxicity; also recorded: Overt toxicity was not observed; average bodyweight loss relative to the start of the study (SU-DHL-4; highest dose group 100 mg/kg i.v., 2 times per week, 4 doses, day 31): −4.2%; average bodyweight loss (SU-DHL-4; over the course of the study, dose not stated (text on FIG. 6)): −1.0%; overt toxicity (Daudi; SCID mice): not associated with overt toxicity; also recorded: Overt toxicity was not observed; % T/C value (Daudi; SCID mice, FIG. 5): 1.5%; average bodyweight loss relative to the start of the study (Daudi; day 41 / over the course of the study): −1.0% |
| CCc1cc(-c2nnc(S)n2-c2ccc(OC)c(N(CC)CC)c2)c(O)cc1O [Compound 247, 4-(4-(3-(diethylamino)-4-methoxyphenyl)-5-mercapto-4H-1,2,4-triazol-3-yl)-6-ethylbenzene-1,3-diol] | < 3000 | – |
| CCCN(c1cc(-n2c(S)nnc2-c2cc(CC)c(O)cc2O)ccc1OC)C(C)C [Compound 248, 4-(4-(3-(N-isopropyl-N-propylamino)-4-methoxyphenyl)-5-mercapto-4H-1,2,4-triazol-3-yl)-6-ethylbenzene-1,3-diol] | < 3000 | – |
| CCc1cc(-c2nnc(S)n2-c2ccc(OC)c(N(C)C(C)C)c2)c(O)cc1O [Compound 249, 4-(4-(3-(N-isopropyl-N-methylamino)-4-methoxyphenyl)-5-mercapto-4H-1,2,4-triazol-3-yl)-6-ethylbenzene-1,3-diol] | < 3000 | – |

Now from value to compound, other results behind:

| IC50 (Her2) [nM] | SMILES | other results |
| --- | --- | --- |
| < 3000 | CCc1cc(-c2nnc(S)n2-c2ccc3[nH]c(C)c(C)c3c2)c(O)cc1O [Compound 185, 3-(2,4-Dihydroxy-5-ethyl-phenyl)-4-(2,3-dimethyl-indol-5-yl)-5-mercapto-triazole] | – |
| < 3000 | Oc1cc(O)c(C2CC2)cc1-c1nnc(S)n1-c1cccc2ccccc12 [Compound 189, 3-(2,4-Dihydroxy-5-cyclopropyl-phenyl)-4-(naphthalene-1-yl)-5-mercapto-triazole] | – |
| < 3000 | CCc1cc(-c2nnc(S)n2-c2ccc(OC)c(N(C)CC)c2)c(O)cc1O [Compound 250, 4-(4-(3-(N-ethyl-N-methylamino)-4-methoxyphenyl)-5-mercapto-4H-1,2,4-triazol-3-yl)-6-ethylbenzene-1,3-diol] | – |
| < 3000 | CCc1cc(-c2nnc(S)n2-c2ccc(OC)c(N(C)C)c2)c(O)cc1O [Compound 251, 4-(4-(3-(dimethylamino)-4-methoxyphenyl)-5-mercapto-4H-1,2,4-triazol-3-yl)-6-ethylbenzene-1,3-diol] | – |
| < 3000 | CCc1cc(-c2nnc(S)n2-c2cccc(N(C)C)c2)c(O)cc1O [Compound 252, 4-(4-(3-(dimethylamino)phenyl)-5-mercapto-4H-1,2,4-triazol-3-yl)-6-ethylbenzene-1,3-diol] | – |
| < 3000 | CCc1cc(-c2nnc(S)n2-c2ccc(N(C)C)c(OC)c2)c(O)cc1O [Compound 259, 4-(4-(4-(dimethylamino)-3-methoxyphenyl)-5-mercapto-4H-1,2,4-triazol-3-yl)-6-ethylbenzene-1,3-diol] | – |
| 10000 to 100000 | CCc1cc(-c2n[nH]c(O)c2-c2cccc3ccccc23)c(O)cc1O [Compound 348, 4-(naphthalen-1-yl)-3-(5-ethyl-2,4-dihydroxy-phenyl)-5-hydroxy-2H-pyrazole] | – |
